pIC50: −log10 of the molar value. Read-outs that look alike come from different tables or passages of the source. One block for each molecule: values may come before it.
Experiments:
[1] = cited from earlier work
[2] = target: GABAA receptors; assay: Current evoked by puff of 100 μM GABA and caged compounds around the soma (Matsuzaki et al., 2010); assay type: cell-based; conditions: for IC33: calculated, q=0.33
Procedure: (§1) FIG. 26 illustrates whole-cell patch clamp recordings from dentate granule cells of rat hippocampal slices reported by Molnár & Nadler, 2000. […] Holding potential of −80 mV. (Molnár & Nadler, 2000 European Journal of Pharmacology, 391, 255-262, which is incorporated herein by reference as if fully set forth, which is incorporated herein by reference as if fully set forth). […] FIG. 27 illustrates summary of the amplitudes of the current evoked by puff of 100 μM GABA and caged compounds around the soma reported by Matsuzaki et al., 2010. The amplitude was normalized to the mean current that was induced by GABA application alone. Left panel illustrates control (n=7); +10 mM CNI-GABA (n=7). Central panel illustrates control (n=10); +0.4 mM CDNI-GABA (n=10), +1.35 mM CDNI-GABA (n=14); +10 mM CDNI-GABA (n=10). Right panel illustrates control (n=9); +1 mM MNI-Glu (n=4); +10 mM MNI-Glu (n=9). ** p<0.0001, * p<0.01 (Matsuzaki et al., 2010 Nature Chemical Biology, 6, 255-257, which is incorporated herein by reference as if fully set forth). […] Though this is a much higher concentration compared to the IC50 for CNB-GABA, CDNI requires a higher concentration when photolyzed in vitro because of its two-photon sensitivity. Because 10 mM is the concentration used for two-photon uncaging, this antagonism is still practically limiting. […] FIG. 28 illustrates the effects of NI-caged GABA and DPNI-GABA on amplitudes of miniature GABA synaptic currents as reported by Trigo et al., 2009. Referring to FIG. 28 (left), this panel illustrates recordings of miniature synaptic GABA currents in molecular layer interneurons before and during application of 1 mM DPNI-GABA. The initial inward current on diluting the cage into the bath was attributable to contaminating levels of GABA. Referring to FIG. 28 (right), the panel illustrates summary histogram from five cells of the block of spontaneous GABA currents by DPNI-GABA at different concentrations in the bath. (Trigo et al., 2009 Journal of Neuroscience Methods, 181, 159-169, which is incorporated herein by reference as if fully set forth).

[3] = N-position; Wieboldt et al., 1994; cited from earlier work
[4] = target: GABAA receptors; conditions: cited from earlier work
[5] = aqueous solution; literature; cited from earlier work
[6] = cited from earlier work; remark: listed apart in the source
[7] = target: GABAA receptors; conditions: Table 2; Matsuzaki et al. 2010; read-out: IC50 in blocking synaptic GABAA currents; cited from earlier work
[8] = test system: cerebellar molecular layer interneurons; assay: Photolysis-evoked GABAergic currents in cerebellar molecular layer interneurons; assay type: cell-based
Procedure: The biological properties of our synthetic bis-CNB-GABA were evaluated using whole-cell patch recording from cerebellar molecular layer interneurons.
FIGS. 42A-42E illustrate physiological responses to photolysis of bis-CNB-GABA. FIG. 42A illustrates a cerebellar molecular layer interneuron visualized using Alexa 488 in the patch recording electrode solution. Referring to FIG. 42A, bis-CNB-GABA (0.6 mM) was photolyzed with a 405 nm laser spot in 3 different locations (indicated by 1, 2 and 3). Still referring to FIG. 42A, laser-evoked GABAergic currents are shown on the right panel. Still referring to FIG. 42A, gray traces show individual sweeps and black traces are averages. Still referring to FIG. 42A, the gray sweep at bottom indicates the laser flash (1 ms duration, intensity 5 mW) as recorded using a photodiode. FIG. 42B illustrates bis-CNB-GABA (1.4 mM) was photolyzed with a […] LED at progressively higher flash energies (0.25-1.1 mW, 5-50 ms, 1.25-55 μJ). FIG. 42C illustrates the same experiment as shown in FIG. 42B with Responses to mono-CNB-GABA (50 μM). FIG. 42D illustrates normalized current as a function of relative LED flash energies plotted on a log-log scale. FIG. 42E illustrates laser-evoked whole-cell current recorded in the absence and presence of 3 μM gabazine, a GABA receptor antagonist. Referring to FIG. 42E, a larger flash energy was used in the presence of gabazine.
Referring to FIG. 42A, molecular layer interneurons receive excitatory glutamatergic synapses, as well as inhibitory GABAergic synapses that show a pronounced level of spontaneous activity (gray traces). The effects of bis-CNB-GABA on these synaptic currents were tested.
By contrast, the relationship for mono-O-CNB-GABA was close to linear (log-log slope=1.3±0.1, n=3). For these measurements, evoked currents were normalized to the maximum current observed in the same neuron. […] These power laws are consistent with a process in which each molecule of bis-CNB-GABA must cumulatively undergo two uncaging reactions in order to release an active GABAA agonist.
To test whether bis-CNB-GABA-evoked responses resemble physiological events in their kinetics, we measured the kinetic properties of flash responses. […] This rise time is consistent with the dark reaction time (1.5 ms) for the slower cage, N-mono-CNB-GABA (Wieboldt, R.; Ramesh, D.; Carpenter, B. K; Hess, G. P. Biochemistry, 1994, 33, 1526-1533, which is incorporated herein by reference as if fully set forth). […] These rates approach those of spontaneous events and are among the fastest described for other GABA cages. […]

[9] = test system: GABAA receptors; assay: Miniature GABA synaptic currents in molecular layer interneurons (Trigo et al., 2009); assay type: cell-based
Procedure: as §1

[10] = test system: GABAA receptors; conditions: cited from earlier work; remark: listed apart in the source
[11] = test system: cerebellar interneurons; conditions: FIG. 43A, 1 mM; see Trigo et al., 2009; cited from earlier work

Compound: COc1ccc([N+](=O)[O-])c2c1CCN2C(=O)CC[C@H](N)C(=O)O [MNI-glu]
quantum yield ([1]; literature values): 0.085
pIC50 ([2]; Table 1, calculated from data of Matsuzaki et al. 2010): 2.96
IC33 ([2]; Table 1): 0.37

Compound: O=C(O)CCCNC(C(=O)O)c1ccccc1[N+](=O)[O-] (stereo not shown) [N-mono-CNB-GABA]
dark reaction time [3]: 1.5 ms

Compound: CP(C)C.F[P-](F)(F)(F)(F)F.F[P-](F)(F)(F)(F)F.NC(CCC(=O)[O-])C(=O)[O-].[Na+].[Na+].[Ru+2].c1ccc(-c2ccccn2)nc1.c1ccc(-c2ccccn2)nc1 [RuBi-glutamate]
pIC50 ([4]; Table 2 footnote 2, Fino et al., 2009, read-out: IC50 in blocking synaptic GABAA currents): 3.52

Compound: NCCCC(=O)N1CCc2c(OCC(=O)O)c([N+](=O)[O-])cc([N+](=O)[O-])c21 [CDNI-GABA]
Stability [5]: Stable
extinction coefficient ([6]; at 330 nm): 6,400 M^−1 cm^−1
product of extinction coefficient and quantum yield (ε×Φ) ([1]; literature values): 3,840 M^−1 cm^−1
quantum yield ([1]; literature values): 0.6
concentration showing 33% reduced response [2]: 220 µM
IC33 ([2]; Table 1): 0.22
pIC50 ([2]; from data of Matsuzaki et al., 2010): 3.35
pIC50 [7]: 3.22

Compound: COc1ccc(-c2ccc(=N)n(CCCC(=O)O)n2)cc1 [gabazine]
effect on currents produced by photolysis of bis-CNB-GABA ([8]; 3 μM gabazine): reversibly eliminated
effect on responses to photolysis of bis-CNB-GABA ([8]; 3 M gabazine): eliminated these responses

Compound: F[P-](F)(F)(F)(F)F.NCCCC(=O)[O-].[Ru+2].c1ccc(-c2ccccn2)nc1.c1ccc(-c2ccccn2)nc1.c1ccc(P(c2ccccc2)c2ccccc2)cc1 [RuBi-GABA, Ruthenium-bipyridine-triphenylphosphine-GABA]
concentrations at which antagonistic GABAA receptor activity is exhibited ([4]; Verde et al., 2008): above 20 μM

Compound: O=C(O)CC[C@H](NC(=O)OCc1cc(=O)oc2cc(O)c(Br)cc12)C(=O)O [Bhc-glutamate]
extinction coefficient ([6]; at 368 nm, caged on the amine): 17,470 M^−1 cm^−1
extinction coefficient ([6]; at 369 nm, caged at the carboxylate): 19,550 M^−1 cm^−1
product of extinction coefficient and quantum yield (φ×ε) ([1]; caged on the amine): 331 M⁻¹ cm⁻¹
quantum yield ([1]; caged on the amine): 0.019
product of extinction coefficient and quantum yield (ε×Φ) ([1]; literature values): 371 M⁻¹ cm⁻¹
quantum yield ([1]; literature values): 0.019

Compound: COc1ccc([N+](=O)[O-])c2c1CCN2C(=O)CCCN [MNI-GABA]
effect on GABAA receptors ([4]; less than CNB-GABA, Palma-Cerda et al., 2012): antagonistic effect

concentration showing 33% reduction [9]: 230 µM
IC33 ([9]; Table 1, calculated, q=0.33): 0.23 mM
pIC50 ([9]; from data of Trigo et al., 2009): 3.33
Compound: NCCCC(=O)N1CCc2c(OC(COP(=O)(O)O)COP(=O)(O)O)ccc([N+](=O)[O-])c21 [DPNI-GABA]
Stability [5]: Stable
decrease in response ([10]; 1 mM): > 50%
pIC50 ([10]; Table 2, cerebellar interneurons, read-out: IC50 in blocking synaptic GABAA currents): 3.30
effect on rise times of IPSCs ([10]; Trigo et al., 2009): prolongs rise times
effect on inward holding current compared with mono-O-CNB-GABA [11]: similar, though less pronounced

Reference: patent publication US9625448B2, “Double caged GABA compounds, bis-CNB-GABA” (The Trustees of Princeton University, priority 2014, dated 2017)
